Source: US20240199548A1, “NOVEL COMPOUNDS USEFUL AS STING AGONISTS AND USES THEREOF” (Jacobio Pharmaceuticals Co., Ltd., priority 2021, published 2024)

Biological target: human STING WT protein (Homo sapiens, UniProt Q86WV6)
Experiment: Human STING WT binding assay (Cisbio HTRF)
Conditions: HTRF competition with STING WT ligand d2, 6 His-tagged human STING WT, 3 hours at RT; read-out: hSTING WT binding IC50
Method: Example A: Human STING WT Binding Assay
Cisbio Bioassays' human STING WT binding assay (#64 BDSTGPEG & 64 BDSTGPEH, Cisbio) is for quantitative measurement of human STING WT ligand using HTRF® technology.
Negative control: Dispense 5 μL of diluent into each negative control well. Standard: Dispense 5 μL of each Human STING WT Standard 2′3′-cGAMP (Std 0-Std 7) into each standard well. Compound: Dispense 5 μL of compound into each compound well.
Negative control: Add 5 μL of detection buffer to all wells. Other wells: Add 5 μL of human STING WT protein 6 His-tagged protein to all wells.
Add 10 μL of premixed STING WT ligand d2 reagent and 6 His Tb antibody working solution to all wells.
Seal the plate and incubate 3 hours at RT or at Over Night if necessary.
Remove the plate sealer and read on an HTRF® compatible reader (PerkinElmer, USA). Results were analyzed with a two-wavelength signal ratio:intensity (665 nm)/intensity (620 nm).
Fit the data in GraphPad to obtain IC50 values using equation (2)
Y=Bottom+(Top−Bottom)/(1+10^((Log IC50−X)*Hill Slope)) Equation (2)
Y is HTRF Ratio and X is compound concentration.

Sequence of human STING WT protein (Q86WV6 whole entry H232R): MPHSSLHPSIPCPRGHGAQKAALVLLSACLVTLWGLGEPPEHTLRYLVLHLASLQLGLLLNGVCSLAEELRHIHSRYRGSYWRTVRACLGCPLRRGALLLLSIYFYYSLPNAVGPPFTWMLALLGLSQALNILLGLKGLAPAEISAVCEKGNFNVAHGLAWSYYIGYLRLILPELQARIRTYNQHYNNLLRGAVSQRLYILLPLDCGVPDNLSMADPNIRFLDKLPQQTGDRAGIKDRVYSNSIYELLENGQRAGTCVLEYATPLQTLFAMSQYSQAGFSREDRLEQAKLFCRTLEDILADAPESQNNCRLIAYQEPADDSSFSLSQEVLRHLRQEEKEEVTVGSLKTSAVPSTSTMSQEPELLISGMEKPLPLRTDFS

SMILES	IC50 [nM]
COc1cc2c(cc1OCCCOc1cc3c(c(F)c1OC)CN(C(=O)CCC(=O)O)C3)CN(C(=O)CCC(=O)O)C2 [Example 2, 4-(6-(3-((2-(3-carboxypropanoyl)-6-methoxyisoindolin-5-yl)oxy)propoxy)-4-fluoro-5-methoxyisoindolin-2-yl)-4-oxobutanoic Acid]	33.7
COc1cc2c(c(F)c1OCCCOc1c(OC)cc3c(c1F)CN(C(=O)CCC(=O)O)C3)CN(C(=O)CCC(=O)O)C2 [Example 9, 4,4′-((propane-1,3-diylbis(oxy))bis(4-fluoro-6-methoxyisoindoline-5,2-diyl))bis(4-oxobutanoic acid)]	0.32
C=C(COc1cc2c(cc1OC)CN(C(=O)CCC(=O)O)C2)COc1cc2c(cc1OC)CN(C(=O)CCC(=O)O)C2 [Example 10, 4,4′-(((2-methylenepropane-1,3-diyl)bis(oxy))bis(6-methoxyisoindoline-5,2-diyl))bis(4-oxobutanoic acid)]	150
COc1cc2c(cc1OCCCOc1cc3c(cc1OC)CN(C(=O)NCCC(=O)O)C3)CN(C(=O)CCC(=O)O)C2 [Example 14, 4-(5-(3-((2-((2-carboxyethyl)carbamoyl)-6-methoxyisoindolin-5-yl)oxy)propoxy)-6-methoxyisoindolin-2-yl)-4-oxobutanoic acid]	144
COc1cc2c(c(F)c1OCCCOc1c(OC)cc3c(c1Cl)CN(C(=O)CCC(=O)O)C3)CN(C(=O)CCC(=O)O)C2 [Example 13, 4-(5-(3-((2-(3-carboxypropanoyl)-4-chloro-6-methoxyisoindolin-5-yl)oxy)propoxy)-4-fluoro-6-methoxyisoindolin-2-yl)-4-oxobutanoic acid]	149
COc1cc2c(cc1OCCCOc1cc3c(cc1OC)CN(C(=O)C[C@H](C)C(=O)O)C3)CN(C(=O)CCC(=O)O)C2 [Example 3, Sodium (S)-4-(5-(3-((2-(3-carboxylatopropanoyl)-6-methoxyisoindolin-5-yl)oxy)propoxy)-6-methoxyisoindolin-2-yl)-2-methyl-4-oxobutanoate]	1.63
COc1cc2c(cc1OCCCOc1cc3c(cc1OC)CN(C(=O)CCC(=O)O)C3)CN(C(=O)CCC(=O)O)C2 [Example 1, 4,4′-((propane-1,3-diylbis(oxy))bis(6-methoxyisoindoline-5,2-diyl))bis(4-oxobutanoic Acid)]	< 0.1
COc1cc2c(cc1OCCCOc1c(OC)cc3c(c1F)CN(C(=O)CCC(=O)O)C3)CN(C(=O)CCC(=O)O)C2 [Example 4, 4-(5-(3-((2-(3-carboxypropanoyl)-4-fluoro-6-methoxyisoindolin-5-yl)oxy)propoxy)-6-methoxyisoindolin-2-yl)-4-oxobutanoic Acid]	0.68
COc1cc2c(nc1OCCCOc1nc3c(cc1OC)CN(C(=O)CCC(=O)O)C3)CN(C(=O)CCC(=O)O)C2 [Example 5, 4,4′-((propane-1,3-diylbis(oxy))bis(3-methoxy-5,7-dihydro-6H-pyrrolo[3,4-b]pyridine-2,6-diyl))bis(4-oxobutanoic Acid)]	3.28
